Reference: US12472166B2, “Inhibition of mycobacterial type VII secretion” (priority 2019, dated 2025)

What was measured:
[1] = test system: M. tuberculosis overexpressing ethA; format: cell-based
[2] = test system: resistant M. tuberculosis strains; format: cell-based

SMILES	activity in the ethA overexpression strain compared to WT M. tuberculosis [1]	increased susceptibility as compared to the parent WT strain [1]	concentration in presence of which resistant strains were grown [2]	increase compared to the susceptible WT strain [2]
O=C(CSc1nc(-c2ccccc2)no1)NC1CCCC1 [Compound I-31]	did not show an increased activity			
COc1ccc(-c2nsc(SCC(=O)NC3CCCC3)n2)cc1 [Compound I-12]		at least 4 fold	80 µM	64 fold
O=C(CSc1nc(-c2ccccc2)no1)NC1CCCC1 [Compound I-28]	increased activity in the ethA overexpression strain			
